Results taken from ChEMBL document CHEMBL3758169, “4-Aminoindazolyl-dihydrofuro[3,4-d]pyrimidines as non-covalent inhibitors of mutant epidermal growth factor receptor tyrosine kinase” (Bioorg Med Chem Lett, 2016).

Experiments:
[1] = test system: Hepatocyte; assay: Drug metabolism in human hepatocytes assessed as glucuronidation; assay type: ADME, cell-based
[2] = target: Angiopoietin-1 receptor (Homo sapiens) (UniProt Q02763); assay: Inhibition of TIE2 (unknown origin) at 100 nM
[3] = target: Protein kinase C beta type (Homo sapiens) (UniProt P05771); assay: Inhibition of PKCbeta2 (unknown origin) at 100 nM
[4] = target: Ephrin type-A receptor 4 (Homo sapiens) (UniProt P54764); assay: Inhibition of EPHA4 (unknown origin) at 100 nM
[5] = target: Testis-specific serine/threonine-protein kinase 2 (Homo sapiens) (UniProt Q96PF2); assay: Inhibition of TSSK2 (unknown origin) at 100 nM
[6] = target: Serine/threonine-protein kinase Sgk1 (Homo sapiens) (UniProt O00141); assay: Inhibition of SGK1 (unknown origin) at 100 nM
[7] = target: cGMP-dependent protein kinase 2 (Homo sapiens) (UniProt Q13237); assay: Inhibition of PKG2 (unknown origin) at 100 nM
[8] = test system: Receptor-type tyrosine-protein kinase FLT3 (Homo sapiens), P36888 [D835Y]; assay: Inhibition of FLT3 D835Y mutant (unknown origin) at 100 nM
[9] = target: Ribosomal protein S6 kinase alpha-5 (Homo sapiens) (UniProt O75582); assay: Inhibition of MSK1 (unknown origin) at 100 nM
[10] = target: Protein kinase C iota type (Homo sapiens) (UniProt P41743); assay: Inhibition of PKCiota (unknown origin) at 100 nM
[11] = target: Casein kinase I isoform epsilon (Homo sapiens) (UniProt P49674); assay: Inhibition of CK1epsilon1 (unknown origin) at 100 nM
[12] = target: Rho-associated protein kinase 2 (Homo sapiens) (UniProt O75116); assay: Inhibition of ROCK2 (unknown origin) at 100 nM
[13] = target: Phosphatidylinositol 4-phosphate 3-kinase C2 domain-containing subunit alpha (Homo sapiens) (UniProt O00443); assay: Inhibition of PI3KC2A (unknown origin) at 100 nM
[14] = target: Calcium/calmodulin-dependent protein kinase type II subunit beta (Homo sapiens) (UniProt Q13554); assay: Inhibition of CaMKIIbeta (unknown origin) at 100 nM
[15] = target: Serine/threonine-protein kinase TAO3 (Homo sapiens) (UniProt Q9H2K8); assay: Inhibition of TAO3 (unknown origin) at 100 nM
[16] = target: Homeodomain-interacting protein kinase 2 (Homo sapiens) (UniProt Q9H2X6); assay: Inhibition of HIPK2 (unknown origin) at 100 nM
[17] = target: RAC-beta serine/threonine-protein kinase (Homo sapiens) (UniProt P31751); assay: Inhibition of AKT2 (unknown origin) at 100 nM
[18] = target: Serine/threonine-protein kinase MARK2 (Homo sapiens) (UniProt Q7KZI7); assay: Inhibition of MARK2 (unknown origin) at 100 nM
[19] = target: Ephrin type-A receptor 7 (Homo sapiens) (UniProt Q15375); assay: Inhibition of EPHA7 (unknown origin) at 100 nM
[20] = target: Mitogen-activated protein kinase kinase kinase 20 (Homo sapiens) (UniProt Q9NYL2); assay: Inhibition of ZAK (unknown origin) at 100 nM
[21] = target: Ephrin type-B receptor 4 (Homo sapiens) (UniProt P54760); assay: Inhibition of EPHB4 (unknown origin) at 100 nM
[22] = target: Wee1-like protein kinase (Homo sapiens) (UniProt P30291); assay: Inhibition of WEE1 (unknown origin) at 100 nM
[23] = target: Protein kinase C eta type (Homo sapiens) (UniProt P24723); assay: Inhibition of PKCeta (unknown origin) at 100 nM
[24] = target: Leukocyte tyrosine kinase receptor (Homo sapiens) (UniProt P29376); assay: Inhibition of LTK (unknown origin) at 100 nM
[25] = target: Mitogen-activated protein kinase 13 (Homo sapiens) (UniProt O15264); assay: Inhibition of p38delta(unknown origin) at 100 nM
[26] = target: BDNF/NT-3 growth factors receptor (Homo sapiens) (UniProt Q16620); assay: Inhibition of TRKB (unknown origin) at 100 nM
[27] = target: Tyrosine-protein kinase ABL2 (Homo sapiens) (UniProt P42684); assay: Inhibition of ARG (unknown origin) at 100 nM
[28] = target: Dual specificity protein kinase CLK2 (Homo sapiens) (UniProt P49760); assay: Inhibition of CLK2 (unknown origin) at 100 nM
[29] = target: Serine/threonine-protein kinase pim-1 (Homo sapiens) (UniProt P11309); assay: Inhibition of PIM1 (unknown origin) at 100 nM
[30] = target: Serine/threonine-protein kinase Nek9 (Homo sapiens) (UniProt Q8TD19); assay: Inhibition of NEK9 (unknown origin) at 100 nM
[31] = target: Mitogen-activated protein kinase 10 (Homo sapiens) (UniProt P53779); assay: Inhibition of JNK3 (unknown origin) at 100 nM
[32] = target: Casein kinase II subunit alpha (Homo sapiens) (UniProt P68400); assay: Inhibition of CK2alpha1 (unknown origin) at 100 nM
[33] = Oral bioavailability in rat at 5 mg/kg; assay type: ADME, organism-based; conditions: in vivo
[34] = target: Mitogen-activated protein kinase kinase kinase 3 (Homo sapiens) (UniProt Q99759); assay: Inhibition of MEKK3 (unknown origin) at 100 nM
[35] = target: Calcium/calmodulin-dependent protein kinase type 1D (Homo sapiens) (UniProt Q8IU85); assay: Inhibition of CaMKIdelta (unknown origin) at 100 nM
[36] = target: Homeodomain-interacting protein kinase 3 (Homo sapiens) (UniProt Q9H422); assay: Inhibition of HIPK3 (unknown origin) at 100 nM
[37] = target: Mitogen-activated protein kinase 9 (Homo sapiens) (UniProt P45984); assay: Inhibition of JNK2 (unknown origin) at 100 nM
[38] = target: Eukaryotic elongation factor 2 kinase (Homo sapiens) (UniProt O00418); assay: Inhibition of EEF2K (unknown origin) at 100 nM
[39] = target: Serine/threonine-protein kinase PAK 5 (Homo sapiens) (UniProt Q9P286); assay: Inhibition of PAK7 (unknown origin) at 100 nM
[40] = target: Dual specificity tyrosine-phosphorylation-regulated kinase 1B (Homo sapiens) (UniProt Q9Y463); assay: Inhibition of DYRK1B (unknown origin) at 100 nM
[41] = target: Serine/threonine-protein kinase MRCK alpha (Homo sapiens) (UniProt Q5VT25); assay: Inhibition of MRCKalpha (unknown origin) at 100 nM
[42] = target: Ribosomal protein S6 kinase alpha-6 (Homo sapiens) (UniProt Q9UK32); assay: Inhibition of RSK4 (unknown origin) at 100 nM
[43] = target: Ephrin type-A receptor 3 (Homo sapiens) (UniProt P29320); assay: Inhibition of EPHA3 (unknown origin) at 100 nM
[44] = target: Mitogen-activated protein kinase kinase kinase 11 (Homo sapiens) (UniProt Q16584); assay: Inhibition of MLK3 (unknown origin) at 100 nM

Sequence of Testis-specific serine/threonine-protein kinase 2 (Homo sapiens) (Q96PF2 whole entry): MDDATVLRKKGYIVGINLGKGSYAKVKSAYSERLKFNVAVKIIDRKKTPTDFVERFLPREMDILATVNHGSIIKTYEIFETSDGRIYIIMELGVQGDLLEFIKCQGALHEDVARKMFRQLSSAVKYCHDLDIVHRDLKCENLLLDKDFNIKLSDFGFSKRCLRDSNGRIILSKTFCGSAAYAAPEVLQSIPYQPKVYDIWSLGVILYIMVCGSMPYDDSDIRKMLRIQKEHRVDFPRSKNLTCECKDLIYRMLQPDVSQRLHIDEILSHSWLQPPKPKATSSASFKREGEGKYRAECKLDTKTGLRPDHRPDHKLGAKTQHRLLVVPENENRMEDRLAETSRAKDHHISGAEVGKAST
Sequence of Ephrin type-A receptor 4 (Homo sapiens) (P54764 whole entry): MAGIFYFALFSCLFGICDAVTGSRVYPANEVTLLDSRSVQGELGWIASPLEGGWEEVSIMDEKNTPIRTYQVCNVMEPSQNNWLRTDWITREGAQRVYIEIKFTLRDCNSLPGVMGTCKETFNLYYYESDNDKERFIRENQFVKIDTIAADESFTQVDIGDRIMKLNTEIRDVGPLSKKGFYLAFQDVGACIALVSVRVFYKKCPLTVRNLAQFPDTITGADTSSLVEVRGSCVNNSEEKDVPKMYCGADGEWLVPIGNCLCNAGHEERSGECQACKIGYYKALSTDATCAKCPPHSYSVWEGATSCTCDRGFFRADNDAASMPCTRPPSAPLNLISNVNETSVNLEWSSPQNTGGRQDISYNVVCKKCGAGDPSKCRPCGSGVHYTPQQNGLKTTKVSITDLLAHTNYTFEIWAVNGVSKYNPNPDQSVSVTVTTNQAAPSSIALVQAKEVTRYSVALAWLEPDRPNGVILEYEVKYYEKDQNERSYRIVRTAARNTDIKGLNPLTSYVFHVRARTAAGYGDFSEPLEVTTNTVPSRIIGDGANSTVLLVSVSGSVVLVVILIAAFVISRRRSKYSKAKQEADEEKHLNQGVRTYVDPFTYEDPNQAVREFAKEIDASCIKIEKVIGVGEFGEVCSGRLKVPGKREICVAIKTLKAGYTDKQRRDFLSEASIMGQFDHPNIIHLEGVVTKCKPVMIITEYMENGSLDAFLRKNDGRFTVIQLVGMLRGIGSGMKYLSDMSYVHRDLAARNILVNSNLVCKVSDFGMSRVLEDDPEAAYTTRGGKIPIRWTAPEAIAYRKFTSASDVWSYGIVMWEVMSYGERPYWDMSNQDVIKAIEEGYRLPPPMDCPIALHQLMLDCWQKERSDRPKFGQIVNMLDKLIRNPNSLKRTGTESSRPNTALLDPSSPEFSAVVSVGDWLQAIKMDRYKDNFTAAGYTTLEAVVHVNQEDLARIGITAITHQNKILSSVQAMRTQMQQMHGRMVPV
Sequence of Homeodomain-interacting protein kinase 3 (Homo sapiens) (Q9H422 whole entry, looked up): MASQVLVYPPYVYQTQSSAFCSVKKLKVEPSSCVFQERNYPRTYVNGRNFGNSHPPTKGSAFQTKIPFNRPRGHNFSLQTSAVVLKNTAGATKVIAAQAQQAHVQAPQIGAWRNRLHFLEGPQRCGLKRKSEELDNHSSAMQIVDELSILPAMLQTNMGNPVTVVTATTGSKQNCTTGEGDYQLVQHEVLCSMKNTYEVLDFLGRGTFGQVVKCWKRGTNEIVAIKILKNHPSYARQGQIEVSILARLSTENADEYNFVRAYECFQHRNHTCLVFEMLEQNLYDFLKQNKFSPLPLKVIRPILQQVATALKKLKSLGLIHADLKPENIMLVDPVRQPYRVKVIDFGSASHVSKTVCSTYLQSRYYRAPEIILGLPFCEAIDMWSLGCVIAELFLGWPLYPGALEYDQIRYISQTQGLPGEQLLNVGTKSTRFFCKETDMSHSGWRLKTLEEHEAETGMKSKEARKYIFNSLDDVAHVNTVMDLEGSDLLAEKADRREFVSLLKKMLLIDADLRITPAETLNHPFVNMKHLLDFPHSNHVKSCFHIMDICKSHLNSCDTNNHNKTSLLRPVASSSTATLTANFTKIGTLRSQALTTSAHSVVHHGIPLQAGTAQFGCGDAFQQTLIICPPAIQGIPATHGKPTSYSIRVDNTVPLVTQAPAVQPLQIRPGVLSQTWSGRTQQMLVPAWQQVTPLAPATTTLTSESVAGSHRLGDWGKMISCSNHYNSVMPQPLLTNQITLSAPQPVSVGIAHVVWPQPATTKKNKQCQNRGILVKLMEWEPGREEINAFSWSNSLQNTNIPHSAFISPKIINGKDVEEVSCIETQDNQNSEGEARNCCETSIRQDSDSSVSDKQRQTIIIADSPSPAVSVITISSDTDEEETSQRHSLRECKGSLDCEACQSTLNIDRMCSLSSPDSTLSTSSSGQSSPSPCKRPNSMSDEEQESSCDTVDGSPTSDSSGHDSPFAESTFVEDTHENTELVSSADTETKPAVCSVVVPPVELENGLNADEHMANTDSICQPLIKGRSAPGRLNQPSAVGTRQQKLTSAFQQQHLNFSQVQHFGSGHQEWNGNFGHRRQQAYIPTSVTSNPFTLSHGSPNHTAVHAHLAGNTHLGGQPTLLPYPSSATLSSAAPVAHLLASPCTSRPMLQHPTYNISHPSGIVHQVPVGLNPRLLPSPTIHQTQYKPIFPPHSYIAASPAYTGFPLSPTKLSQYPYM
Sequence of Ephrin type-B receptor 4 (Homo sapiens) (P54760 whole entry): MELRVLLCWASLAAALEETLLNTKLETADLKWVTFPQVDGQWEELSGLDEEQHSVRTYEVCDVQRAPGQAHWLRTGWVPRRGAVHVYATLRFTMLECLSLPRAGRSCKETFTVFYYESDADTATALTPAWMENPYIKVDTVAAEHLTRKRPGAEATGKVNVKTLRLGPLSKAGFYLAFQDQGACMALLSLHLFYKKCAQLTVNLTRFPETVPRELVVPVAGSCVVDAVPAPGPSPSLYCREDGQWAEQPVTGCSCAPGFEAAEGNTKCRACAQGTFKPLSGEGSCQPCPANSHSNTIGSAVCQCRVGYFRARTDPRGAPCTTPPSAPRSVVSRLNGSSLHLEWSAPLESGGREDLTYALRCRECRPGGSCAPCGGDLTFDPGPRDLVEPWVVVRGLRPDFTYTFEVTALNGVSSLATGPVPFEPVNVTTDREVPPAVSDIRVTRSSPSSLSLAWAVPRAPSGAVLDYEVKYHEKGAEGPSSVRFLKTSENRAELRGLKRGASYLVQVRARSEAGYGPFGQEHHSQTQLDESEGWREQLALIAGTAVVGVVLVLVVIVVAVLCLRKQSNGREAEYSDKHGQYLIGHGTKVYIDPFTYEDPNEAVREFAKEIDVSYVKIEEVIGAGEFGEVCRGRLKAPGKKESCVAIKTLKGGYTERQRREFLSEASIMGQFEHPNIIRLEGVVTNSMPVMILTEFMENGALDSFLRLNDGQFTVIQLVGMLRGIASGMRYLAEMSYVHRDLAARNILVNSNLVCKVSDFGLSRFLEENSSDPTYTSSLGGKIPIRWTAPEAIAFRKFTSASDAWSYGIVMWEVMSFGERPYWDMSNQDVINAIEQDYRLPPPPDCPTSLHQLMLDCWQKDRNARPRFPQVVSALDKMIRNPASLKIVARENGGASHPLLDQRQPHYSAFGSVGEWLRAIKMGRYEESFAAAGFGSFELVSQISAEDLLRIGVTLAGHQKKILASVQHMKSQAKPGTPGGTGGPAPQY
Sequence of Serine/threonine-protein kinase TAO3 (Homo sapiens) (Q9H2K8 whole entry): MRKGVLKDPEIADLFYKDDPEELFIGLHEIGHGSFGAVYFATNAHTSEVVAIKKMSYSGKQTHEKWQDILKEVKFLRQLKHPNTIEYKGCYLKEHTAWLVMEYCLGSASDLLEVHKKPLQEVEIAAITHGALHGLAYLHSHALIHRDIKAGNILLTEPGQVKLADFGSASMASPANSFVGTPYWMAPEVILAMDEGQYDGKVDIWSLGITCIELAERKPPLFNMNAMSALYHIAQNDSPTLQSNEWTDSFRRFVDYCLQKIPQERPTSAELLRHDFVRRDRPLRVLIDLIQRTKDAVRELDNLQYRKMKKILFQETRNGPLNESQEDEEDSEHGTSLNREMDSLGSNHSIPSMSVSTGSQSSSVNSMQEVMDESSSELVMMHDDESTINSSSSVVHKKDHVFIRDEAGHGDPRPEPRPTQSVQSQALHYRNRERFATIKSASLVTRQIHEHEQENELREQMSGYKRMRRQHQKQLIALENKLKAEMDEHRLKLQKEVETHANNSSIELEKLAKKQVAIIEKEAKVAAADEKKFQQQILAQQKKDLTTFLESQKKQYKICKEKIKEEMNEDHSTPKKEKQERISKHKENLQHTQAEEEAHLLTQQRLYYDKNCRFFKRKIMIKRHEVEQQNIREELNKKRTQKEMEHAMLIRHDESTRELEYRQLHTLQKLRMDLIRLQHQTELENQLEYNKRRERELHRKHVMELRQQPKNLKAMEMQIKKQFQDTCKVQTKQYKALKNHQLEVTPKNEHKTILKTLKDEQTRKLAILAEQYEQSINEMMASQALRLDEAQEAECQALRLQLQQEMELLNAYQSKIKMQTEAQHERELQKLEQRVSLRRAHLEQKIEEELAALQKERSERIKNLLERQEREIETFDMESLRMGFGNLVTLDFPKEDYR
Sequence of Mitogen-activated protein kinase kinase kinase 3 (Homo sapiens) (Q99759 whole entry): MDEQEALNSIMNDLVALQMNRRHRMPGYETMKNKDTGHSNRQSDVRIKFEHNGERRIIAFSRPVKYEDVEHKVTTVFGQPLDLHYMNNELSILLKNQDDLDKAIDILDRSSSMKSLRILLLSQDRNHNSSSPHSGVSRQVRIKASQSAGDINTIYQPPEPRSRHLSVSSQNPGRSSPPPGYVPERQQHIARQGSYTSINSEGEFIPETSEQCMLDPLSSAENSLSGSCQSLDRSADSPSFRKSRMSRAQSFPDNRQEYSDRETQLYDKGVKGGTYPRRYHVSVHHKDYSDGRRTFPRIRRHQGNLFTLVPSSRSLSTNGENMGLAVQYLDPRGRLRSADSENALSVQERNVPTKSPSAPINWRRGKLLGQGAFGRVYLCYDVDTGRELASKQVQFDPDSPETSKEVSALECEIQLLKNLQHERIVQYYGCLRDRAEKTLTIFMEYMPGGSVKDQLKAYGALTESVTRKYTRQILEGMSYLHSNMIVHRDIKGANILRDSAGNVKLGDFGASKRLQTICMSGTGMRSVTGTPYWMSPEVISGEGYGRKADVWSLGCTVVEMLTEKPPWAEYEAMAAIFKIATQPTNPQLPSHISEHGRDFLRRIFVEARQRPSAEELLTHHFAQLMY

For CC1(C)OCc2c(Nc3n[nH]c4c(Cl)cccc34)nc(-c3cn[nH]c3)nc21, the Drug metabolism [1] was “metabolite_detected”.

CC1(C)OCc2c(Nc3n[nH]c4ccccc34)nc(-c3cn[nH]c3)nc21 gave an inhibition [2] of -0.1%, an inhibition [3] of 11.4% and an inhibition [4] of 23.1%. For the same compound, the inhibition [5] was 4%, the inhibition [6] was -5.2% and the inhibition [7] was -8.9%. For the same compound, the inhibition [8] was 24.8%, the inhibition [9] was 11.5% and the inhibition [10] was -1.5%. The inhibition [11] was 5.1%, the inhibition [12] was -10% and the inhibition [13] was 2.9%. It also gave an inhibition [14] of 11.2%, an inhibition [15] of 6.2% and an inhibition [16] of 1.3%. It also gave an inhibition [17] of 8.8%, an inhibition [18] of -5.3% and an inhibition [19] of 35.9%. It also gave an inhibition [20] of 11.4%, an inhibition [21] of 40.7% and an inhibition [22] of 36.1%. For the same compound, the inhibition [23] was 15.5%, the inhibition [24] was 32% and the inhibition [25] was 8.6%. For the same compound, the inhibition [26] was -1.4%, the inhibition [27] was 69.5% and the inhibition [28] was -3.6%. It also gave an inhibition [29] of -7.1%, an inhibition [30] of -0.2% and an inhibition [31] of 18.6%. It also gave an inhibition [32] of 1.4%, a bioavailability [33] of 13% and an inhibition [34] of 49.3%. For the same compound, the inhibition [35] was -5.3%, the inhibition [36] was 8.6% and the inhibition [37] was 44.8%. The inhibition [38] was 7.5%, the inhibition [39] was -1.8% and the inhibition [40] was -1.6%. For the same compound, the inhibition [41] was 1.9%, the inhibition [42] was 9.8% and the inhibition [43] was 4.2%. For the same compound, the inhibition [44] was 6.7%.
